Assay results taken from patent US7112594B2, “Fused bicyclic amide compounds and medicinal use thereof” (Mitsubishi Pharma Corporation, priority 2000, dated 2006).

Tests used:
rat lymphocytes = test: Proliferation of rat lymphocytes stimulated by PMA and calcium ionophore A23187 (tritium thymidine uptake); format: cell-based; conditions: Lymphocyte, PMA 10 ng/ml and A23187 100 ng/ml
Experimental: An RPMI1640 medium (Sigma) was used as a medium, to which kanamycin sulfate (60 μg/ml) and penicillin G potassium (100 units/ml) were added, and then 10% of fetal calf serum (FCS, Gibco) inactivated at 56° C. for 30 min was added and used for the test. The compound of the present invention or a pharmaceutically acceptable salt thereof was dissolved in dimethyl sulfoxide and diluted with the 10% FCS-containing RPMI1640 medium to a desired concentration and used for the test.
The spleens were aseptically removed from 6-week-old male F344 rats or LEW rats (Charles River Japan, Inc.) and minced with tweezers in RPMI1640 medium and then prepared into a single cell suspension of splenic cell. After hematolysis by a hypotonicity treatment using a 9:1 mixed solution of 0.83% aqueous ammonium chloride solution and Tris-HCl buffer (pH 7.65), the suspension was passed through a nylon wool column to give nylon non-adhesive T cell concentration fraction for use. The cell suspension prepared using 10% FCS-containing RPMI1640 medium was added to a flat 96 well microtest plate at 5×10^5 cells/well. The compound of the present invention or a pharmaceutically acceptable salt thereof at a concentration of 0.0001-100 μM, 10 ng/ml of PMA and 100 ng/ml of A23187 were added and the mixture was cultured at 37° C., 5% carbon dioxide and 95% air for 44 hr. After the completion of the culture, tritium thymidine (18.5 kBq/well, specific activity: 185 GBq/mmol, Amersham Pharmacia Biotech) was added and the mixture was cultured at 37° C., 5% carbon dioxide, 95% air for further 4 hr. Then using a cell harvester, the cells were recovered on a glass fiber filter, and using a scintillation counter (MicroBeta 1460) for plate, the radioactivity taken into the cells was measured, and the proliferation of rat lymphocyte induced by stimulation with PMA and A23187 was measured. To be specific, the inhibition rate was calculated by the following formula based on average tritium thymidine uptake (cpm) by lymphocyte in the wells to which various concentrations of the compound of the present invention were added. [formula]
Based on the dose-response curve obtained by plotting average value of tritium thymidine uptake (cpm) or inhibition rate in the longitudinal axis and concentration in the horizontal axis, the concentration (IC50) of the compound that inhibits the level to 50% of the value of the control group was determined by nonlinear regression.

[1] = system: type II collagen induced arthritis; test: Type II collagen induced arthritis in DBA/1J mouse; format: in vivo; conditions: repeated oral administration

| SMILES | IC50 (rat lymphocytes) [nM] | improvement of severity of developed arthritis, swelling of the limbs or destruction of joint ([1]; 10 mg/kg body weight) | death ([1]; 30 mg/kg body weight) |
| --- | --- | --- | --- |
| CC(C)c1ccc2c(O)c(C(=O)Nc3ccc(OCC(C)(C)C)c(C#N)c3)sc2n1 [Example 28, N-(3-cyano-4-neopentyloxyphenyl)-3-hydroxy-6-isopropylthieno[2,3-b]pyridine-2-carboxamide] | 2000 | – | – |
| N#Cc1cc(NC(=O)c2cc3ccccc3o2)ccc1N1CCC(CCO)CC1 [Example 20, N-{3-cyano-4-[4-(2-hydroxyethyl)piperidin-1-yl]phenyl}benzo[b]furan-2-carboxamide] | 230 | – | – |
| N#Cc1cc(NC(=O)c2cc3ccccc3s2)ccc1N1CCN(CCO)CC1 [Example 11, N-[3-cyano-4-(4-(2-hydroxyethyl)piperazin-1-yl)phenyl]benzo[b]thiophene-2-carboxamide] | 1500 | – | – |
| Cc1[nH]c2ccc(F)cc2c1C(=O)Nc1ccc(Oc2ccccc2)c(C#N)c1 [Example 6, N-(3-cyano-4-phenoxyphenyl)-5-fluoro-2-methyl-1H-indole-3-carboxamide] | 390 | – | – |
| Cc1c(C(=O)Nc2ccc(C(F)(F)F)cc2)cnn1-c1ccc(F)cc1 [1-(4-fluorophenyl)-N-(4-trifluoromethylphenyl)-5-methylpyrazole-4-carboxamide] | – | did not improve | confirmed death |
